This passage reports T/C results from PubChem BioAssay AID248 (DTP/NCI, 2004).

For the experiment, the system named is L1210 leukemia ip in BDF1 mice, survival T/C. The experiment is described as follows: NCI In Vivo Anticancer Drug Screen. Data for tumor model L1210 Leukemia (intraperitoneal) in B6D2F1 (BDF1) mice. The following applies: endpoint: mean survival time, higher = longer survival. The method, boiled down:
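Tumor was transplanted into mice, which were then dosed with test compound or vehicle alone. Survival was recorded for each group, and the treated figure was expressed relative to the control figure.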

Setting [1] is: dose: 100.0 mg/kg/injection, schedule: Q01DX001 (ip), vehicle: saline.
The mark [2] stands for this setting: dose: 200.0 mg/kg/injection, schedule: Q01DX001 (ip), vehicle: saline.
[3] abbreviates: dose: 400.0 mg/kg/injection, schedule: Q01DX001 (ip), vehicle: saline with Tween-80.
The mark [4] stands for this setting: dose: 400.0 mg/kg/injection, schedule: Q01DX001 (ip), vehicle: saline.
[5] abbreviates: dose: 100.0 mg/kg/injection, schedule: Q01DX009 (ip), vehicle: Klucel (hydroxypropylcellulose) (HPC).
Setting [6] is: dose: 100.0 mg/kg/injection, schedule: Q04DX003 (ip), vehicle: Klucel (hydroxypropylcellulose) (HPC).
Setting [7] is: dose: 200.0 mg/kg/injection, schedule: Q01DX009 (ip), vehicle: Klucel (hydroxypropylcellulose) (HPC).
[8] abbreviates: dose: 200.0 mg/kg/injection, schedule: Q04DX003 (ip), vehicle: Klucel (hydroxypropylcellulose) (HPC).
Where [9] appears, read: dose: 400.0 mg/kg/injection, schedule: Q01DX009 (ip), vehicle: Klucel (hydroxypropylcellulose) (HPC).
[10] abbreviates: dose: 400.0 mg/kg/injection, schedule: Q04DX003 (ip), vehicle: Klucel (hydroxypropylcellulose) (HPC).

Toxic doses and inconclusive results are not listed.

Regarding `CC(=O)Nc1nncs1`, the T/C was 105 % of control (dose: 7.0 mg/kg/injection, schedule: Q03HX032 (ip), vehicle: saline with Tween-80); 108 % of control (dose: 11.0 mg/kg/injection, schedule: Q03HX032 (ip), vehicle: saline with Tween-80); 107 % of control (dose: 16.0 mg/kg/injection, schedule: Q03HX032 (ip), vehicle: saline with Tween-80); 101 % of control (dose: 24.0 mg/kg/injection, schedule: Q03HX032 (ip), vehicle: saline with Tween-80); 109 % of control (dose: 27.0 mg/kg/injection, schedule: Q01DX015 (ip), vehicle: saline with Tween-80); 96 % of control (dose: 31.0 mg/kg/injection, schedule: Q01DX015 (ip), vehicle: carboxymethylcellulose (CMC)). Besides, the T/C (dose: 36.0 mg/kg/injection, schedule: Q03HX032 (ip), vehicle: saline with Tween-80) was 108 % of control; the T/C (dose: 40.0 mg/kg/injection, schedule: Q01DX015 (ip), vehicle: saline with Tween-80) was 95 % of control; the T/C (dose: 50.0 mg/kg/injection, schedule: Q01DX001 (ip), vehicle: saline) is 112 % of control; the T/C (dose: 60.0 mg/kg/injection, schedule: Q01DX015 (ip), vehicle: saline with Tween-80) was 97 % of control; the T/C (dose: 62.0 mg/kg/injection, schedule: Q01DX015 (ip), vehicle: carboxymethylcellulose (CMC)) is 102 % of control; the T/C (dose: 90.0 mg/kg/injection, schedule: Q01DX015 (ip), vehicle: saline with Tween-80) is 101 % of control. Also, the T/C runs as follows: under setting [1], 115 % of control; (dose: 135.0 mg/kg/injection, schedule: Q01DX015 (ip), vehicle: saline with Tween-80) 95 % of control; under setting [2], 112 % of control; (dose: 248.0 mg/kg/injection, schedule: Q01DX015 (ip), vehicle: carboxymethylcellulose (CMC)) 98 % of control; (dose: 270.0 mg/kg/injection, schedule: Q01DX001 (ip), vehicle: saline with Tween-80) 101 % of control; under setting [3], 109 % of control. Further, the T/C is 106 % of control under setting [4]; 112 % of control (dose: 600.0 mg/kg/injection, schedule: Q01DX001 (ip), vehicle: saline with Tween-80); 109 % of control (dose: 900.0 mg/kg/injection, schedule: Q01DX001 (ip), vehicle: saline with Tween-80); 120 % of control (dose: 1350.0 mg/kg/injection, schedule: Q01DX001 (ip), vehicle: saline with Tween-80).

As to `CSc1ccc(OC(=O)NC2CCCCC2)cc1`, the T/C is, setting by setting: under setting [5], 98 % of control; under setting [6], 98 % of control; under setting [7], 101 % of control; under setting [8], 101 % of control; under setting [9], 116 % of control; under setting [10], 101 % of control.

As for `COc1ccc(NC(=O)Nc2ccc(C3=NCCCN3)cc2)cc1NC(=O)Nc1ccc(C2=NCCCN2)cc1`, the T/C (dose: 62.0 mg/kg/injection, schedule: Q01DX Z (ip), vehicle: carboxymethylcellulose (CMC)) was 115 % of control; the T/C (dose: 62.0 mg/kg/injection, schedule: Q01DX Z (oral), vehicle: carboxymethylcellulose (CMC)) is 104 % of control; the T/C (dose: 125.0 mg/kg/injection, schedule: Q01DX Z (oral), vehicle: carboxymethylcellulose (CMC)) was 98 % of control; the T/C (dose: 250.0 mg/kg/injection, schedule: Q01DX Z (ip), vehicle: carboxymethylcellulose (CMC)) was 150 % of control; the T/C (dose: 250.0 mg/kg/injection, schedule: Q01DX Z (oral), vehicle: carboxymethylcellulose (CMC)) was 104 % of control; the T/C (dose: 500.0 mg/kg/injection, schedule: Q01DX Z (oral), vehicle: carboxymethylcellulose (CMC)) is 100 % of control.

As for `O=C(O)CCCCCCCCCCCCO`, the T/C is 96 % of control under setting [6], 91 % of control under setting [8] and 96 % of control under setting [10].

For `CCO/C=C1\SC(=S)N(c2ccc(O)cc2)C1=O`, the T/C is 103 % of control (dose: 12.5 mg/kg/injection, schedule: Q01DX009 (ip), vehicle: Klucel (hydroxypropylcellulose) (HPC)); 101 % of control (dose: 25.0 mg/kg/injection, schedule: Q01DX009 (ip), vehicle: Klucel (hydroxypropylcellulose) (HPC)); 105 % of control (dose: 50.0 mg/kg/injection, schedule: Q01DX009 (ip), vehicle: Klucel (hydroxypropylcellulose) (HPC)); 103 % of control under setting [5]; 104 % of control (dose: 100.0 mg/kg/injection, schedule: Q01DX009 (ip), vehicle: other); 98 % of control under setting [6]. Also, the T/C was 96 % of control (dose: 100.0 mg/kg/injection, schedule: Q04DX003 (ip), vehicle: saline sonified); 108 % of control (dose: 200.0 mg/kg/injection, schedule: Q01DX009 (ip), vehicle: other); 98 % of control under setting [8]; 97 % of control (dose: 200.0 mg/kg/injection, schedule: Q04DX003 (ip), vehicle: saline sonified); 89 % of control under setting [10]; 99 % of control (dose: 400.0 mg/kg/injection, schedule: Q04DX003 (ip), vehicle: saline sonified).

For the molecule `CCOC(=O)C1OC1C1c2cccc3cccc(c23)C1C1OC1C(=O)OCC` (configuration not stated), the T/C under setting [1] is 107 % of control, the T/C under setting [2] was 94 % of control and the T/C under setting [4] is 102 % of control.

As to `CC1(C(Cl)(Cl)Cl)C=CC(=NOCC(=O)O)C=C1` (configuration not stated), the T/C by setting is: (dose: 100.0 mg/kg/injection, schedule: Q04DX002 (ip), vehicle: Klucel (hydroxypropylcellulose) (HPC)) 98 % of control; (dose: 200.0 mg/kg/injection, schedule: Q04DX002 (ip), vehicle: Klucel (hydroxypropylcellulose) (HPC)) 95 % of control; (dose: 400.0 mg/kg/injection, schedule: Q04DX002 (ip), vehicle: Klucel (hydroxypropylcellulose) (HPC)) 98 % of control.

As to `O=C(Nc1ccc2ccccc2c1)c1ccccc1Cl`, the T/C was 93 % of control under setting [5], 101 % of control under setting [7] and 101 % of control under setting [9].

For `CCCCCCCCCCc1ccc(CCCCCCCCCC)cc1`, the T/C runs as follows: (dose: 100.0 mg/kg/injection, schedule: Q01DX001 (ip), vehicle: saline with Tween-80) 94 % of control; (dose: 200.0 mg/kg/injection, schedule: Q01DX001 (ip), vehicle: saline with Tween-80) 92 % of control; under setting [3], 99 % of control.

As for `O=C(Nc1cccc(Cl)c1)C(Br)C(Br)c1ccccc1` (configuration not stated), the T/C by setting is: under setting [5], 102 % of control; under setting [7], 103 % of control; under setting [9], 100 % of control.

`O=C(OC/C(=C\Cl)OC(=O)c1ccc([N+](=O)[O-])cc1)c1ccc([N+](=O)[O-])cc1`: the T/C runs as follows: under setting [5], 100 % of control; under setting [7], 105 % of control; under setting [9], 100 % of control.

Consider `CS(=O)c1nsc(S(C)=O)c1C#N` (configuration not stated), for which the T/C (dose: 12.5 mg/kg/injection, schedule: Q04DX002 (ip), vehicle: Klucel (hydroxypropylcellulose) (HPC)) was 122 % of control.

`COC(=O)C(c1ccccc1)c1ccccc1`: the T/C was 97 % of control (dose: 100.0 mg/kg/injection, schedule: Q01DX001 (ip), vehicle: Klucel (hydroxypropylcellulose) (HPC)); 97 % of control (dose: 200.0 mg/kg/injection, schedule: Q01DX001 (ip), vehicle: Klucel (hydroxypropylcellulose) (HPC)); 104 % of control (dose: 400.0 mg/kg/injection, schedule: Q01DX001 (ip), vehicle: Klucel (hydroxypropylcellulose) (HPC)).

For `Cc1ccc(S(=O)(=O)NCCCOS(=O)(=O)c2ccc(C)cc2)cc1`, the T/C by setting is: under setting [5], 104 % of control; (dose: 100.0 mg/kg/injection, schedule: Q04DX003 (ip), vehicle: acetone) 97 % of control; under setting [7], 93 % of control; (dose: 200.0 mg/kg/injection, schedule: Q04DX003 (ip), vehicle: acetone) 95 % of control; under setting [9], 93 % of control; (dose: 400.0 mg/kg/injection, schedule: Q04DX003 (ip), vehicle: acetone) 94 % of control.
